Legend:
Format in all cases: in vivo
[1] = system: redroot pigweed (Amaranthus retroflexus, AMR); assay: Pre-emerge test, redroot pigweed; conditions: 250 g ai/ha, 14 days after application, rating scale 0-100 (0 no damage, 100 complete death)
Method in brief: (§1)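 Greenhouse pre-emergence screen: track-sprayer application of compounds in acetone at 187 l/ha, rates 8 g ai/ha to 1000 g ai/ha, one day after planting in sandy loam pots. Damage scored at 14 days, 0 (none) to 100 (all plants dead).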

[2] = system: velvetleaf (Abutilon theophrasti, ABT); assay: Pre-emerge test, velvetleaf; conditions: 250 g ai/ha, 14 days after application, rating scale 0-100 (0 no damage, 100 complete death)
Method in brief: as §1

[3] = system: sicklepod (Cassia obtusifolia, CAO); assay: Pre-emerge test, sicklepod; conditions: 250 g ai/ha, 14 days after application, rating scale 0-100 (0 no damage, 100 complete death)
Method in brief: as §1

[4] = system: ivyleaf morningglory (Ipomoea hederacea, IPH); assay: Pre-emerge test, ivyleaf morningglory; conditions: 250 g ai/ha, 14 days after application, rating scale 0-100 (0 no damage, 100 complete death)
Method in brief: as §1

[5] = system: lambsquarters (Chenopodium album, CHA); assay: Pre-emerge test, lambsquarters; conditions: 250 g ai/ha, 14 days after application, rating scale 0-100 (0 no damage, 100 complete death)
Method in brief: as §1

[6] = system: common ragweed (Ambrosia artemisiifolia L., AML); assay: Pre-emerge test, common ragweed; conditions: 250 g ai/ha, 14 days after application, rating scale 0-100 (0 no damage, 100 complete death)
Method in brief: as §1

[7] = system: cocklebur (Xanthium strumariunt, XAS); assay: Pre-emerge test, cocklebur; conditions: 250 g ai/ha, 14 days after application, rating scale 0-100 (0 no damage, 100 complete death)
Method in brief: as §1

[8] = system: green foxtail (Setaria viridis, SEV); assay: Pre-emerge test, green foxtail; conditions: 250 g ai/ha, 14 days after application, rating scale 0-100 (0 no damage, 100 complete death)
Method in brief: as §1

[9] = system: barnyardgrass (Echinachloa crus-galli, ECC); assay: Pre-emerge test, barnyardgrass; conditions: 250 g ai/ha, 14 days after application, rating scale 0-100 (0 no damage, 100 complete death)
Method in brief: as §1

[10] = system: johnsongrass (Sorghum halepense, SOH); assay: Pre-emerge test, johnsongrass; conditions: 250 g ai/ha, 14 days after application, rating scale 0-100 (0 no damage, 100 complete death)
Method in brief: as §1

[11] = system: large crabgrass (Digitaria sanguinalis, DIS); assay: Pre-emerge test, large crabgrass; conditions: 250 g ai/ha, 14 days after application, rating scale 0-100 (0 no damage, 100 complete death)
Method in brief: as §1

[12] = system: field corn (Zea mays L., var. Dekalb 535, CORN); assay: Pre-emerge test, crop damage field corn; conditions: pre-emerge, 250 g ai/ha, 14 days after application, rating scale 0-100 (0 no damage, 100 complete death)
Method in brief: (§2)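 Read-out is a visual 0–100 phytotoxicity rating taken 14 days after treatment, where 100 means all plants dead. Compounds were applied pre-emergence in acetone by track sprayer at rates from 8 to 1000 g ai/ha onto pots sown the previous day.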

[13] = system: soybean (Glycine max L., var. Pella 86, SOY); assay: Pre-emerge test, crop damage soybean; conditions: pre-emerge, 250 g ai/ha, 14 days after application, rating scale 0-100 (0 no damage, 100 complete death)
Method in brief: as §2

[14] = system: upland rice (Oryza sp., var.Tebonnet, RICE); assay: Pre-emerge test, crop damage upland rice; conditions: pre-emerge, 250 g ai/ha, 14 days after application, rating scale 0-100 (0 no damage, 100 complete death)
Method in brief: as §2

[15] = system: wheat (Triticum aestivum); assay: Pre-emerge test, crop damage wheat; conditions: pre-emerge, 250 g ai/ha, 14 days after application, rating scale 0-100 (0 no damage, 100 complete death)
Method in brief: as §2

[16] = system: redroot pigweed (Amaranthus retroflexus, AMR); assay: Post-emerge test, redroot pigweed; conditions: 250 g ai/ha, 14 days after application, rating scale 0-100 (0 no damage, 100 complete death)
Method in brief: (§3)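 Plants grow in sandy loam pots for 8-21 days, then receive an acetone spray (187 l/ha, 0.25% v/v non-ionic surfactant) at 8-1000 g ai/ha. Plant damage is rated 0-100 at 14 days.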

[17] = system: velvetleaf (Abutilon theophrasti, ABT); assay: Post-emerge test, velvetleaf; conditions: 250 g ai/ha, 14 days after application, rating scale 0-100 (0 no damage, 100 complete death)
Method in brief: as §3

[18] = system: sicklepod (Cassia obtusifolia, CAO); assay: Post-emerge test, sicklepod; conditions: 250 g ai/ha, 14 days after application, rating scale 0-100 (0 no damage, 100 complete death)
Method in brief: as §3

[19] = system: ivyleaf morningglory (Ipomoea hederacea, IPH); assay: Post-emerge test, ivyleaf morningglory; conditions: 250 g ai/ha, 14 days after application, rating scale 0-100 (0 no damage, 100 complete death)
Method in brief: as §3

[20] = system: lambsquarters (Chenopodium album, CHA); assay: Post-emerge test, lambsquarters; conditions: 250 g ai/ha, 14 days after application, rating scale 0-100 (0 no damage, 100 complete death)
Method in brief: as §3

[21] = system: common ragweed (Ambrosia artemisiifolia L., AML); assay: Post-emerge test, common ragweed; conditions: 250 g ai/ha, 14 days after application, rating scale 0-100 (0 no damage, 100 complete death)
Method in brief: as §3

[22] = system: cocklebur (Xanthium strumariunt, XAS); assay: Post-emerge test, cocklebur; conditions: 250 g ai/ha, 14 days after application, rating scale 0-100 (0 no damage, 100 complete death)
Method in brief: as §3

[23] = system: green foxtail (Setaria viridis, SEV); assay: Post-emerge test, green foxtail; conditions: 250 g ai/ha, 14 days after application, rating scale 0-100 (0 no damage, 100 complete death)
Method in brief: as §3

[24] = system: barnyardgrass (Echinachloa crus-galli, ECC); assay: Post-emerge test, barnyardgrass; conditions: 250 g ai/ha, 14 days after application, rating scale 0-100 (0 no damage, 100 complete death)
Method in brief: as §3

[25] = system: johnsongrass (Sorghum halepense, SOH); assay: Post-emerge test, johnsongrass; conditions: 250 g ai/ha, 14 days after application, rating scale 0-100 (0 no damage, 100 complete death)
Method in brief: as §3

[26] = system: large crabgrass (Digitaria sanguinalis, DIS); assay: Post-emerge test, large crabgrass; conditions: 250 g ai/ha, 14 days after application, rating scale 0-100 (0 no damage, 100 complete death)
Method in brief: as §3

[27] = system: field corn (Zea mays L., var. Dekalb 535, CORN); assay: Post-emerge test, crop damage field corn; conditions: post-emerge, 250 g ai/ha, 14 days after application, rating scale 0-100 (0 no damage, 100 complete death)
Method in brief: as §3

[28] = system: soybean (Glycine max L., var. Pella 86, SOY); assay: Post-emerge test, crop damage soybean; conditions: post-emerge, 250 g ai/ha, 14 days after application, rating scale 0-100 (0 no damage, 100 complete death)
Method in brief: as §3

[29] = system: upland rice (Oryza sp., var.Tebonnet, RICE); assay: Post-emerge test, crop damage upland rice; conditions: post-emerge, 250 g ai/ha, 14 days after application, rating scale 0-100 (0 no damage, 100 complete death)
Method in brief: as §3

[30] = system: wheat (Triticum aestivum); assay: Post-emerge test, crop damage wheat; conditions: post-emerge, 250 g ai/ha, 14 days after application, rating scale 0-100 (0 no damage, 100 complete death)
Method in brief: as §3

SMILES | Pre-emerge Herbicidal Activity AMR (phytotoxicity rating) [1] | Pre-emerge Herbicidal Activity ABT (phytotoxicity rating) [2] | Pre-emerge Herbicidal Activity CAO (phytotoxicity rating) [3] | Pre-emerge Herbicidal Activity IPH (phytotoxicity rating) [4] | Pre-emerge Herbicidal Activity CHA (phytotoxicity rating) [5] | Pre-emerge Herbicidal Activity AML (phytotoxicity rating) [6] | Pre-emerge Herbicidal Activity XAS (phytotoxicity rating) [7] | Pre-emerge Herbicidal Activity SEV (phytotoxicity rating) [8] | Pre-emerge Herbicidal Activity ECC (phytotoxicity rating) [9] | Pre-emerge Herbicidal Activity SOH (phytotoxicity rating) [10] | Pre-emerge Herbicidal Activity DIS (phytotoxicity rating) [11] | Pre-emerge crop damage CORN (phytotoxicity rating) [12] | Pre-emerge crop damage SOY (phytotoxicity rating) [13] | Pre-emerge crop damage RICE (phytotoxicity rating) [14] | Pre-emerge crop damage WHEAT (phytotoxicity rating) [15] | Post-emerge Herbicidal Activity AMR (phytotoxicity rating) [16] | Post-emerge Herbicidal Activity ABT (phytotoxicity rating) [17] | Post-emerge Herbicidal Activity CAO (phytotoxicity rating) [18] | Post-emerge Herbicidal Activity IPH (phytotoxicity rating) [19] | Post-emerge Herbicidal Activity CHA (phytotoxicity rating) [20] | also measured
Cc1nn(-c2c(F)cc3c4c2NC(=O)CN4C(=O)CO3)c(=O)n1C(F)F [1-73] | 100 | 100 | 90 | 100 | 100 | 80 | 65 | 100 | 100 | 100 | 100 | 100 | 60 | 100 | 90 | 30 | 65 | 0 | 55 | 90 | Post-emerge Herbicidal Activity AML (phytotoxicity rating) [21]: 50; Post-emerge Herbicidal Activity XAS (phytotoxicity rating) [22]: 40; Post-emerge Herbicidal Activity SEV (phytotoxicity rating) [23]: 50; Post-emerge Herbicidal Activity ECC (phytotoxicity rating) [24]: 0; Post-emerge Herbicidal Activity SOH (phytotoxicity rating) [25]: 0; Post-emerge Herbicidal Activity DIS (phytotoxicity rating) [26]: 0; Post-emerge crop damage CORN (phytotoxicity rating) [27]: 0; Post-emerge crop damage SOY (phytotoxicity rating) [28]: 60; Post-emerge crop damage RICE (phytotoxicity rating) [29]: 75; Post-emerge crop damage WHEAT (phytotoxicity rating) [30]: 0
Cc1nn(-c2c(F)cc3c4c2NC(=O)C(C)N4C(=O)CO3)c(=O)n1C(F)F (stereo not drawn) [1-74] | 98 | 100 | 75 | 95 | 99 | 80 | 98 | 100 | 98 | 99 | 99 | 100 | 95 | 99 | 98 | 60 | 55 | 0 | 0 | 65 | Post-emerge Herbicidal Activity AML (phytotoxicity rating) [21]: 55; Post-emerge Herbicidal Activity XAS (phytotoxicity rating) [22]: 10; Post-emerge Herbicidal Activity SEV (phytotoxicity rating) [23]: 65; Post-emerge Herbicidal Activity ECC (phytotoxicity rating) [24]: 0; Post-emerge Herbicidal Activity SOH (phytotoxicity rating) [25]: 0; Post-emerge Herbicidal Activity DIS (phytotoxicity rating) [26]: 0; Post-emerge crop damage CORN (phytotoxicity rating) [27]: 0; Post-emerge crop damage SOY (phytotoxicity rating) [28]: 0; Post-emerge crop damage RICE (phytotoxicity rating) [29]: 0; Post-emerge crop damage WHEAT (phytotoxicity rating) [30]: 0
CCC1C(=O)Nc2c3c(cc(F)c2-n2nc(C)n(C(F)F)c2=O)OCC(=O)N31 (stereo not drawn) [1-75] | 50 | 100 | 65 | 99 | 100 | 85 | 85 | 99 | 100 | 100 | 100 | 100 | 98 | 99 | 10 | 0 | 90 | 0 | 80 | 80 | Post-emerge Herbicidal Activity AML (phytotoxicity rating) [21]: 45; Post-emerge Herbicidal Activity XAS (phytotoxicity rating) [22]: 20; Post-emerge Herbicidal Activity SEV (phytotoxicity rating) [23]: 0; Post-emerge Herbicidal Activity ECC (phytotoxicity rating) [24]: 0; Post-emerge Herbicidal Activity SOH (phytotoxicity rating) [25]: 0; Post-emerge Herbicidal Activity DIS (phytotoxicity rating) [26]: 0; Post-emerge crop damage CORN (phytotoxicity rating) [27]: 0; Post-emerge crop damage SOY (phytotoxicity rating) [28]: 55; Post-emerge crop damage RICE (phytotoxicity rating) [29]: 40; Post-emerge crop damage WHEAT (phytotoxicity rating) [30]: 0
O=C1CN2C(=O)COc3cc(F)c(-n4nnn(CCCF)c4=O)c(c32)N1 [1-76] | 65 | 55 | 45 | 25 | 98 | 55 | 60 | 0 | 35 | 35 | 25 | 5 | 0 | 10 | 0 | 0 | 0 | 0 | 0 | 0 | Post-emerge Herbicidal Activity AML (phytotoxicity rating) [21]: 0; Post-emerge Herbicidal Activity XAS (phytotoxicity rating) [22]: 0; Post-emerge Herbicidal Activity SEV (phytotoxicity rating) [23]: 0; Post-emerge Herbicidal Activity ECC (phytotoxicity rating) [24]: 0; Post-emerge Herbicidal Activity SOH (phytotoxicity rating) [25]: 0; Post-emerge Herbicidal Activity DIS (phytotoxicity rating) [26]: 0; Post-emerge crop damage CORN (phytotoxicity rating) [27]: 0; Post-emerge crop damage SOY (phytotoxicity rating) [28]: 0; Post-emerge crop damage RICE (phytotoxicity rating) [29]: 0; Post-emerge crop damage WHEAT (phytotoxicity rating) [30]: 0

— US6770596B1, “Fused tricyclic compounds, process for their preparation, and herbicidal compositions containing them” (Ishihara Sangyo Kaisha Ltd., priority 2002, dated 2004)
